Reference: patent publication US12521395B2, “Gem-disubstituted heterocyclic compounds and their use as IDH inhibitors” (NERVIANO MEDICAL SCIENCES S.R.L., priority 2019, dated 2026)

Target: IDH1^R132C (Homo sapiens, UniProt O75874, R132C)
Assay: NADPH depletion assay (diaphorase/resazurin), IDH1 R132C
Format: biochemical
Settings: IDH1^R132C 2 nM, alpha-ketoglutarate 0.14 mM; read-out: IDH1^R132C IC50
Experimental: IDH mutated enzyme activity converting alpha-ketoglutarate to 2-hydroxyglutaric acid is measured using a NADPH depletion assay. In the assay the remaining cofactor is measured at the end of the reaction with the addition of a catalytic excess of diaphorase and resazurin, to generate a fluorescent signal in proportion to the amount of NADPH remaining. IDH1 WT enzyme as well as mutated isoforms IDH1^R132H, IDH1^R132C, and IDH2^R172K enzymes are commercially available proteins (see e.g. Sino Biological, Abcam, Active Motif or Creative BioMart).
IDH1^R132H homodimer enzyme are diluted to 8 nM, in 10 μL of Assay Buffer (150 mM NaCl, 50 mM Tris-HCl pH 7.6, 10 mM MgCl2, 0.001% Triton X-100, 4 mM β-mercaptoethanol); 0.2 μL of test compound, previously serially diluted 1 to 3, >10 experimental points from 1 mM in DMSO, is added and the mixture is incubated for 15 minutes at room temperature. The reaction is started with the addition of 10 μL of Substrate Mix (12 μM NADPH, 3.4 mM alpha-ketoglutarate in Assay Buffer) and the mixture is incubated for 60 minutes at room temperature. The reaction is terminated with the addition of 5 μl of Detection Buffer (100 μg/mL diaphorase, 30 μM resazurin, in IX Assay Buffer), and is incubated for 15 minutes before reading on a ViewLux as platereader at Ex544/Em590.
Compounds are assayed for their activity against IDH1^R132C following the same assay as above with the following modifications: IDH1^R132C and alpha-ketoglutarate final concentrations in the Assay Buffer is 2 nM and 0.14 mM, respectively.

IDH1^R132C, sequence (O75874 whole entry R132C): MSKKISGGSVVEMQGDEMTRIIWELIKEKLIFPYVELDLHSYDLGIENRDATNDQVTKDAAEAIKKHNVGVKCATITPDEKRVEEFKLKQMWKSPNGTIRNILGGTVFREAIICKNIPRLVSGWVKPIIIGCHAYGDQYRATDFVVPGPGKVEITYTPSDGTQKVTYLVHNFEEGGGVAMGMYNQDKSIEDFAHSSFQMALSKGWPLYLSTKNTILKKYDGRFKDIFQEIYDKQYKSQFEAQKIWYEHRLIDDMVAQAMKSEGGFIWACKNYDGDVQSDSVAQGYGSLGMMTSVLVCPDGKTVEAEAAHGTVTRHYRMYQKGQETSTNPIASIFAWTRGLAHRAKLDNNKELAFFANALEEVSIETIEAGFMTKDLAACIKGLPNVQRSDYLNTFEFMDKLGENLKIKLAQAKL

SMILES	IC50
[2H]C([2H])([2H])C([2H])(n1c(=O)ccc2cnc(N[C@@H](C)c3ccc(C4(N5CCN(C(=O)C=C)CC5)CCOCC4)cc3)nc21)C([2H])([2H])[2H] [cpd 55, 2-{[(1S)-1-{4-[4-(4-acryloylpiperazin-1-yl)tetrahydro-2H-pyran-4-yl]phenyl}ethyl]amino}-8-[(^2H7)propan-2-yl]pyrido[2,3-d]pyrimidin-7(8H)-one]	11 nM
C=CC(=O)N1CCN(C2(c3ccc(CNc4ncc5ccc(=O)n(C(C)C)c5n4)cc3)CCOCC2)CC1 [cpd 31, 2-({4-[4-(4-acryloylpiperazin-1-yl)tetrahydro-2H-pyran-4-yl]benzyl}amino)-8-(propan-2-yl)pyrido[2,3-d]pyrimidin-7(8H)-one]	332 nM
C=C(C)C(=O)N1CCN(C2(c3ccc([C@H](C)Nc4ncc5ccc(=O)n(C(C)C)c5n4)cc3)CCOCC2)CC1 [cpd 21, 2-{[(1S)-1-(4-{4-[4-(2-methylacryloyl)piperazin-1-yl]tetrahydro-2H-pyran-4-yl}phenyl)ethyl]amino}-8-(propan-2-yl) pyrido[2,3-d]pyrimidin-7(8H)-one]	904 nM
C=C(F)C(=O)N1CCN(C2(c3ccc([C@H](C)Nc4ncc5ccc(=O)n(C(C)C)c5n4)cc3)CCOCC2)CC1 [cpd 54, 2-{[(1S)-1-(4-{4-[4-(2-fluoroacryloyl)piperazin-1-yl]tetrahydro-2H-pyran-4-yl}phenyl)ethyl]amino}-8-(propan-2-yl) pyrido[2,3-d]pyrimidin-7(8H)-one]	928 nM
C=CC(=O)N1CCN(C2(c3ccc([C@H](C)Nc4ncc5c(C)cc(=O)n(C(C)C)c5n4)cc3)CCOCC2)CC1 [cpd 18, 2-{[(1S)-1-{4-[4-(4-acryloylpiperazin-1-yl)tetrahydro-2H-pyran-4-yl]phenyl}ethyl]amino}-5-methyl-8-(propan-2-yl) pyrido[2,3-d]pyrimidin-7(8H)-one]	24 nM
C=CC(=O)N1CCN(C2(c3ccc([C@H](C)Nc4nc(N(C)C)c5ccc(=O)n(C(C)C)c5n4)cc3)CCOCC2)CC1 [cpd 36, 2-{[(1S)-1-{4-[4-(4-acryloylpiperazin-1-yl)tetrahydro-2H-pyran-4-yl]phenyl}ethyl]amino}-4-(dimethylamino)-8-(propan-2-yl)pyrido[2,3-d]pyrimidin-7(8H)-one]	988 nM
C=CC(=O)NCC(=O)NC1(c2ccc([C@H](C)Nc3ncc4ccc(=O)n(C(C)C)c4n3)cc2)CCC(F)(F)CC1 [cpd 56, N-{2-[(4,4-difluoro-1-{4-[(1S)-1-{[7-oxo-8-(propan-2-yl)-7,8-dihydropyrido[2,3-d]pyrimidin-2-yl]amino}ethyl]phenyl}cyclohexyl)amino]-2-oxoethyl}prop-2-enamide]	321 nM
C=CC(=O)N[C@H](C)C(=O)NC1(c2ccc([C@H](C)Nc3ncc4ccc(=O)n(C(C)C)c4n3)cc2)CCC(F)(F)CC1 [cpd 57, N2-acryloyl-N-(4,4-difluoro-1-{4-[(1S)-1-{[7-oxo-8-(propan-2-yl)-7,8-dihydropyrido[2,3-d]pyrimidin-2-yl]amino}ethyl]phenyl}cyclohexyl)-D-alaninamide]	533 nM
C=CC(=O)N1CCN(C(C)(CC)c2ccc([C@H](C)Nc3ncc4ccc(=O)n(C(C)C)c4n3)cc2)CC1 (stereo partly drawn) [cpd 46, 2-{[(1S)-1-{4-[2-(4-acryloylpiperazin-1-yl)butan-2-yl]phenyl}ethyl]amino}-8-(propan-2-yl)pyrido[2,3-d]pyrimidin-7(8H)-one]	13 nM
CCN1CCN(C2(c3ccc([C@H](C)Nc4ncc5c(n4)N(CC)C(=O)OC5)cc3)CCOCC2)CC1 [cpd 45, 7-{[(1S)-1-{4-[4-(4-ethylpiperazin-1-yl)tetrahydro-2H-pyran-4-yl]phenyl}ethyl]amino}-1-ethyl-1,4-dihydro-2H-pyrimido[4,5-d][1,3]oxazin-2-one]	1060 nM
C=CC(=O)N1CCN(C2(c3ccc([C@H](C)Nc4nc(NC)c5ccc(=O)n(C(C)C)c5n4)cc3)CCOCC2)CC1 [cpd 37, 2-{[(1S)-1-{4-[4-(4-acryloylpiperazin-1-yl)tetrahydro-2H-pyran-4-yl]phenyl}ethyl]amino}-4-(methylamino)-8-(propan-2-yl)pyrido[2,3-d]pyrimidin-7(8H)-one]	991 nM
C=CC(=O)N1CCN(C2(c3ccc([C@H](C)Nc4ncc5ccc(=O)n(C(C)C)c5n4)nc3)CCOCC2)CC1 [cpd 27, 2-{[(1S)-1-{5-[4-(4-acryloylpiperazin-1-yl)tetrahydro-2H-pyran-4-yl]pyridin-2-yl}ethyl]amino}-8-(propan-2-yl)pyrido[2,3-d]pyrimidin-7(8H)-one]	98 nM
C=CC(=O)N1CCN(C2(c3ccc([C@H](C)Nc4ncc5ccc(=O)n(C(CC)CC)c5n4)cc3)CCOCC2)CC1 [cpd 35, 2-{[(1S)-1-{4-[4-(4-acryloylpiperazin-1-yl)tetrahydro-2H-pyran-4-yl]phenyl}ethyl]amino}-8-(pentan-3-yl)pyrido[2,3-d]pyrimidin-7(8H)-one]	4 nM
C=CC(=O)N1CCN(C2(c3ccc([C@H](C)Nc4ncc5ccc(=O)n(C(C)C)c5n4)cc3)CCN(C)CC2)CC1 [cpd 32, 2-{[(1S)-1-{4-[4-(4-acryloylpiperazin-1-yl)-1-methylpiperidin-4-yl]phenyl}ethyl]amino}-8-(propan-2-yl)pyrido[2,3-d]pyrimidin-7(8H)-one]	64 nM
C=CC(=O)N1CCN(C2(c3ccc([C@H](C)Nc4nc(C)c5ccc(=O)n(C(C)C)c5n4)cc3)CCOCC2)CC1 [cpd 13, 2-{[(1S)-1-{4-[4-(4-acryloylpiperazin-1-yl)tetrahydro-2H-pyran-4-yl]phenyl}ethyl]amino}-4-methyl-8-(propan-2-yl) pyrido[2,3-d]pyrimidin-7(8H)-one]	53.8 nM

Second part, the molecule after the results:

IC50	SMILES
2 nM	C=CC(=O)N1CC(N(C(C)=O)C2(c3ccc([C@H](C)Nc4cc5c(ccc(=O)n5C(C)C)cn4)cc3)CCC(F)(F)CC2)C1 [cpd 62, N-(1-acryloylazetidin-3-yl)-N-(4,4-difluoro-1-{4-[(1S)-1-{[2-oxo-1-(propan-2-yl)-1,2-dihydro-1,6-naphthyridin-7-yl]amino}ethyl]phenyl}cyclohexyl)acetamide]
32 nM	CCC(=O)N1CCN(C2(c3ccc([C@H](C)Nc4cc5c(ccc(=O)n5C(C)C)cn4)cc3)CCC(F)(F)CC2)CC1 [cpd 67, 7-{[(1S)-1-{4-[4,4-difluoro-1-(4-propanoylpiperazin-1-yl)cyclohexyl]phenyl}ethyl]amino}-1-(propan-2-yl)-1,6-naphthyridin-2(1H)-one]
75 nM	C=CC(=O)NCCN(C(=O)C(F)(F)F)C1(c2ccc([C@H](C)Nc3ncc4ccc(=O)n(C(C)C)c4n3)cc2)CCOCC1 [cpd 66, N-{2-[(4-{4-[(1S)-1-{[7-oxo-8-(propan-2-yl)-7,8-dihydropyrido[2,3-d]pyrimidin-2-yl]amino}ethyl]phenyl}tetrahydro-2H-pyran-4-yl)(trifluoroacetyl)amino]ethyl}prop-2-enamide]
352 nM	C=CC(=O)N[C@@H](C)C(=O)NC1(c2ccc([C@H](C)Nc3ncc4ccc(=O)n(C(C)C)c4n3)cc2)CCC(F)(F)CC1 [cpd 58, N2-acryloyl-N-(4,4-difluoro-1-{4-[(1S)-1-{[7-oxo-8-(propan-2-yl)-7,8-dihydropyrido[2,3-d]pyrimidin-2-yl]amino}ethyl]phenyl}cyclohexyl)-L-alaninamide]
305 nM	CC(C)n1c(=O)ccc2cnc(N[C@@H](C)c3ccc(C4(N5CCN(C#N)CC5)CCOCC4)cc3)nc21 [cpd 65, 4-(4-{4-[(1S)-1-{[7-oxo-8-(propan-2-yl)-7,8-dihydropyrido[2,3-d]pyrimidin-2-yl]amino}ethyl]phenyl}tetrahydro-2H-pyran-4-yl)piperazine-1-carbonitrile]
6 nM	C=CC(=O)N1CC(N(C)C2(c3ccc([C@H](C)Nc4cc5c(ccc(=O)n5C(C)C)cn4)cc3)CCC(F)(F)CC2)C1 [cpd 61, 7-{[(1S)-1-(4-{1-[(1-acryloylazetidin-3-yl)(methyl)amino]-4,4-difluorocyclohexyl}phenyl)ethyl]amino}-1-(propan-2-yl)-1,6-naphthyridin-2(1H)-one]
151 nM	C=CC(=O)NCCNC1(c2ccc([C@H](C)Nc3ncc4ccc(=O)n(C(C)C)c4n3)cc2)CCOCC1 [cpd 59, N-{2-[(4-{4-[(1S)-1-{[7-oxo-8-(propan-2-yl)-7,8-dihydropyrido[2,3-d]pyrimidin-2-yl]amino}ethyl]phenyl}tetrahydro-2H-pyran-4-yl)amino]ethyl}prop-2-enamide]
55 nM	C=CC(=O)N1CCN(C2(c3ccc([C@@H](C)Nc4cc5c(ccc(=O)n5C(C)C)cn4)cc3)CCC(F)(F)CC2)CC1 [cpd 63, 7-{[(1R)-1-{4-[1-(4-acryloylpiperazin-1-yl)-4,4-difluorocyclohexyl]phenyl}ethyl]amino}-1-(propan-2-yl)-1,6-naphthyridin-2(1H)-one]
71 nM	CC(C)n1c(=O)ccc2cnc(N[C@@H](C)c3ccc(C4(N5CCN(C(=O)C(O)CO)CC5)CCC(F)(F)CC4)cc3)cc21 (stereo partly drawn) [cpd 60, 7-{[(1S)-1-(4-{1-[4-(2,3-dihydroxypropanoyl)piperazin-1-yl]-4,4-difluorocyclohexyl}phenyl)ethyl]amino}-1-(propan-2-yl)-1,6-naphthyridin-2(1H)-one]
